Read-outs that look alike come from different tables or passages of the source.
Legend:
[1] = mouse, in vivo
[2] = C3 partitioning and plasma protein binding in mouse blood and plasma; assay type: in vitro ADME
[3] = mouse, in vivo; for V (volume of distribution): 1.1 mg/kg
[4] = Tissue distribution of 14C-C3 in mice; set-up: species or system C57BL/6J mice; details: mouse, in vivo
[5] = Stability of C3 in solutions at pH 1 or pH 10; assay type: physicochemical; details: pH 1 or pH 10 for >24 h at 37°C
pregnant mouse dams = details: in vivo; cited from earlier work
[6] = 10 or 100 μg/ml, 3000 mwco centricon filter

brain uptake [1]: 10 % of the administered dose
14C-C3 in the filtrate of the saline control [2, 6]: 73%
14C-C3 in the plasma filtrate (free) [2, 6]: 13%
fraction of blood C3 in the plasma fraction ([2]; blood from treated animals and naïve blood spiked with 14C-C3, centrifugation): > 99%
protein bound ([2]; mouse plasma, 10 or 100 μg/ml, mean ± SEM): 87 ± 0.1%
V (volume of distribution) ([3]; ip): 0.91 ± 0.12 L/kg
V (volume of distribution) ([3]; iv): 0.85 ± 0.08 L/kg
Oral bioavailability ([3]; po): ~ 10 % of the i.v. administration
tissue radioactivity, 7-day pump vs single bolus dose, adjusted for dose [4]: 5 times
Substance: e,e,e, tris malonic acid C60 [C3]
stability in solution [5]: a small fraction of carboxylic acid head-groups were removed, but the cyclopropane carbons were intact
effects on fertility, pregnancy, viability or anatomy of the offspring (pregnant mouse dams): failed to find any effects

From PMC6128740 (European journal of drug metabolism and pharmacokinetics, 2018)
